# Measured values published in patent US9486472B2, “Methods for modulating neuronal responses” (UNIVERSITY OF BRITISH COLUMBIA CANADA, priority 2003, dated 2016).
# Experiments:
# [1] = system: CA1 neurons in hippocampal slices; experiment: LFS-induced hippocampal CA1 long-term depression (LTD); type: cell-based, rat; conditions: postsynaptic application, 100 μg/ml; 1 Hz for 15 min
# Method: (§1) Hippocampal slices (400 μm thickness) were prepared from Sprague-Dawley rats aged 16-26 postnatal days and perfused at room temperature with artificial cerebrospinal fluid containing (mM): 126 NaCl, 26 NaHCO3, 10 glucose, 3 KCl, 1.2 KH2PO4, 1 MgCl2, and 1 CaCl2, saturated with 95% O2/5% CO2^14. The recording pipettes (4-5 MO) were filled with solution containing (mM): 135 CsCl, 10 HEPES, 5 QX-314, 4 Mg-ATP, 2 MgCl2, 0.5 EGTA, 0.2 GTP and 0.1 CaCl2, pH 7.4, 310 mOsm. Whole-cell recording of CA1 neurons and the induction of LFS-LTD were performed as previously described.^14
# The level of GluR2 tyrosine phosphorylation was assayed following low-frequency stimulation (LFS) of hippocampal slices (1 Hz for 15 min, which reliably induces LTD under our experimental conditions), to determine whether tyrosine phosphorylation of GluR2 CT may be required for LFS-induced long term depression (LTD). Slices were homogenized in denaturing buffer 10 min after the stimulation and GluR subunits were immunoprecipitated and probed for phosphotyrosine. […] Induction of LTD by LFS was blocked by postsynaptic application of GST-GluR23Y (100 μg/ml), but not by the mutant peptide GST-GluR23A (100 μg/ml; FIG. 10B) or by GST-GluR2834-843 (FIG. 10C).
# pp60 c-Src = pp60 c-Src (Homo sapiens, UniProt P12931); experiment: In vitro kinase assay with active recombinant Src; type: biochemical; conditions: GST fusion protein as substrate
# Description: FIGS. 7 A-D. Insulin increases phosphorylation of tyrosine residues within the GluR2 carboxyl terminal (CT) region. A. In vitro tyrosine phosphorylation of the GluR2 CT. GST fusion proteins of the GluR1 CT (GST-GluR1CT), the GluR2 CT (GST-GluR2CT), residues 869-876 (YKEGYNVYG (SEQ ID NO. 4)) of the GluR2 CT (GST-GluR23Y), which contains a cluster of three tyrosine residues (Y869, Y873, and Y876) and the same amino acid stretch of the GluR2 CT with its tyrosine residues replaced by alanines (GST-GluR23A), along with the GST back bone (GST) as control, were incubated in the absence (−) or presence (+) of active recombinant pp60 c-Src. Phosphorylation products were immunoblotted using an anti-phosphotyrosine antibody (top panel). […] B. Expression levels of HA-GluR2 and HA-GluR23Y-3A (where tyrosines 869, 873 and 876 were mutated to alanines) 48 h after transient transfection into HEK293 cells were determined by a cell ELISA assay using permeabilized cells. C. HEK293 cells transiently transfected with HA-GluR1, HA-GluR2 or HA-GluR23Y-3A, along with empty vector (mock transfection) as control. Forty-eight hours later, the cells were treated with or without 0.5 μM insulin for 10 min. The lysates were then subjected to immunoprecipitation with an anti-HA antibody under denaturing conditions and immunoblotting with an anti-phosphotyrosine antibody (Top blot; IB: PY). […]
# [2] = system: CA1 neurons in hippocampal slices; experiment: Insulin-induced depression of AMPA receptor-mediated EPSCs, whole-cell recording of CA1 neurons; type: cell-based, rat; conditions: 100 μg/ml in recording pipette; insulin 0.5 μM in bath
# Method: GST-GluR23Y and GST-GluR23A were constructed by subcloning corresponding PCR fragments into pGEX 4T-1 vectors. GST fusion proteins were expressed in DH5α E. coli and purified from bacterial lysates according to the manufacturer's protocol (Pharmacia). Products were dialyzed in PBS and concentrated using Microcon-10 columns (Amicon) for intracellular application during whole-cell recordings.
# as §1, with “described.^14 […]” for “described.^14”
# [3] = system: AMPA receptor (wild type GluR2); experiment: Colorimetric cell-ELISA receptor internalization assay, HEK293 cells expressing GluR2; type: cell-based, rat; conditions: insulin 0.5 μM, 10 min; approximately 25% without insulin
# Description: Rat HA-tagged GluR1 and GluR2 receptor subunit cDNAs have been described previously^14. Constructs of HA-GluR2 carboxyl internal deletion or truncation mutants were made by standard PCR methods. The HA-GluR23Y-3A mutant was made using a Quick-Change Site Directed Mutagenesis Kit (Stratagene). HEK293 cells (ATCC) were transfected using the calcium phosphate precipitation method. Thirty six to forty eight hours after transfection, cells were washed with extracellular recording solution (ECS in mM: 140 NaCl, 33 glucose, 25 HEPES, 5.4 KCl, 1.3 CaCl2; pH 7.4, 320 mOsm) and incubated in ECS for at least one hour (serum starvation). […]
# The ability of these mutants to undergo both constitutive and regulated endocytosis was assayed as described previously.^14 Surface receptors in live cells were pre-labelled with an anti-HA antibody (or an antibody against the extracellular N-terminal domain of GluR2 in the case of GluR2Δ854) at 4° C. […] Internalised receptors were then visualised by confocal microscopy and quantitated by colorimetric cell-ELISA-based receptor internalization assays (FIG. 6A). […] Transfected cells were pre-labeled with anti-HA antibody and then receptor endocytosis was evaluated under basal conditions (constitutive endocytosis) or following insulin stimulation (0.5 μM, 10 min; regulated endocytosis). […]
# [4] = system: cultured cortical neurons; experiment: OGD-induced neuronal apoptosis (Cell Death Detection ELISAplus), GluR2-CT with PEP-1; type: cell-based; conditions: GluR2CT peptide (1 mM) with PEP-1, one hour before OGD; 24 hr after OGD
# Method: (§2) Ischemia-like insult was mimicked by oxygen and glucose deprivation (OGD) for one hour in cultured cortical neurons (DIV 12-14). OGD is a well-characterized cell culture model of ischemia. GluR2CT peptide (1 mM) was delivered into neurons by mixing it with the carrier peptide PEP-1 and incubating neurons with the mixture for one hour before OGD challenge. […] (n=6; *: P<0.05, Student's test, compared with Control).
# AMPA receptor [5] = experiment: OGD-induced decrease of cell-surface AMPA receptors (Cell-ELISA), cultured cortical neurons; type: cell-based; conditions: GluR2CT peptide (1 mM) with PEP-1, one hour before OGD
# Method: as §2
# AMPA receptor [6] = experiment: Cell-ELISA of cell-surface AMPA receptors after NMDA treatment, hippocampal neurons; type: cell-based, rat; conditions: 100 μM NMDA + 10 μM glycine 1 h; R2-CT delivered with Pep-1 one hour prior to and during NMDA
# Method: (§3) (DMEM, Gibco) at 37° C. in a humidified atmosphere containing 5% CO2 for 30 min to allow the formation of R2-CT/Pep-1 complex. Hippocampal neurons (DW 12-14) were then overlaid with the preformed complex to reach a final R2-CT concentration of 1 μM and further incubated for 1 h before experiments commenced. Receptor Trafficking Assays
# Cell ELISA assay: Quantification of cell-surface AMPA or NMDA receptors was performed by a colorimetric cell-ELISA assay essentially as described previously^14. Briefly, hippocampal neurons were treated with 100 μM NMDA plus 10 μM glycine for 1 h and then fixed with 4% paraformaldehyde/4% sucrose in PBS for 10 min. Half of the cells in each treatment condition were then permeabilized with 0.1% Triton-X 100 for 5 min. Receptors on the plasma membrane surface and the total cellular pool were then determined by incubating the cells with monoclonal antibodies against the extracellular domains of GluR2 or NR1 (Chemicon, 1 μg/ml) overnight at 4° C., followed by incubation with HRP-conjugated anti-mouse IgG secondary antibody (1:1000, Amersham Life Sciences) for 1 h at room temperature. Following extensive washing with PBS, cells were incubated with OPD substrate (Sigma) for approximately 10 min. Reactions were stopped with 0.2 volumes of 3N HCl, and absorbance at 492 nm was read using a spectrophotometric microplate reader.
# hippocampal neurons = experiment: NMDA- or STS-induced apoptosis in cultured hippocampal neurons (Cell Death ELISA, 11-dUTP, PI staining); type: cell-based, rat
# Method: Hippocampi were rapidly removed from embryonic E l 8 Sprague Dawley rats and pooled prior to trituration. Hippocampal cell suspensions were plated onto poly-Dlysine coated culture dishes or glass coverslips and grown in Neurobasal™ media 10 (Invitrogen) for 14 days in vitro (DIV). The media from mature 14 DIV neurons was removed and replaced with 100 μM NMDA plus 10 μM glycine for 1 h at 37° C. prior to restoring neurons to the defined growth media. Twenty four hours after NMDA/glycine application, neurons were processed using cell death assays. NMDA-induced [Ca^2+]i responses were evoked and measured using methods described previously^26.
# Apoptosis quantification: NMDA-induced apoptosis was quantified either using a Cell Death Detection Elisa Plus Kit (Roche Applied Sciences), which is based on the in vitro determination of cytoplasmic histone-associated DNA fragments, or using TdT mediated addition of biotinylated 11-dUTP to the free 3′-OH ends of DNA. Absorbance readings for both assays were carried out using a microplate reader.
# Propidium Iodide (PI) staining of nuclei: After the induction of apoptosis, cells were fixed with 4% parafonnaldehyde/4% sucrose for 10 min followed by ice cold acetone for 1 min, and then stained with […] PI in Dulbecco's PBS for 30 min. Stained coverslips were mounted onto glass slides and viewed with a Leica fluorescence microscope to identify condensed nuclei. Cells with condensed nuclei were counted as apoptotic and the percentage of apoptotic cells to the total number of cells was calculated to give a semi-quantitative analysis, expressed as percentage of apoptosis.
# A short peptide (YKEGYNVYGIE (SEQ ID NO. 2)) corresponding to amino acid residues from 869 to 879 of the C-terminus of GluR2 (R2-CT) was synthesized and incubated with a carrier protein (Pep-1)23 at a ratio of 1:20 in Dulbecco's modified Eagle's medium
# as §3
substance,measurement,setting,value
"GSTYKEGYNVYG [GST-GluR23Y, GST fusion protein of the nine amino-acid GluR2 CT stretch with three tyrosines]",induction of LTD by LFS,[1],blocked
same,tyrosine phosphorylation by recombinant Src kinase,pp60 c-Src,phosphorylated
same,insulin-induced EPSC depression,[2],prevented
insulin: human recombinant insulin (Sigma),cell-surface receptors endocytosed within 30 min,[3],48%
"YKEGYNVYGIE [R2-CT, short peptide corresponding to amino acid residues 869 to 879 of the C-terminus of GluR2]",OGD-induced neuronal death,[4],largely prevented
same,OGD-induced decrease in cell-surface AMPA receptor expression,AMPA receptor [5],reduced the OGD-induced decrease in cell-surface AMPA receptor expression
same,NMDA-induced reduction of cell-surface AMPA receptors,AMPA receptor [6],prevented
same,"NMDA-induced apoptosis, peptide or carrier alone",hippocampal neurons; R2-CT alone or Pep-1 alone,neither R2-CT nor Pep-1 alone had any detectable effect
same,STS-induced neuronal apoptosis,"hippocampal neurons; staurosporine 100 nM, 1 h",did not alter STS-induced neuronal apoptosis
